From patent publication US10561666B2, “Amido compounds as RORγt modulators and uses thereof” (New York University, priority 2010, dated 2020)

Legend:
mouse Th17 polarization = experiment: Mouse Th17 polarization assay (IL-17a producing cells); format: cell-based; conditions: for IC50: naive mouse CD4 T cells, TGFβ and IL6, compounds added Day 1, analyzed Day 4, IL-17a producing cells, read-out: Th 17 IC50; for mouse Th17 cell differentiation, as measured by IL17a production: 20 μM, compared to DMSO treated cells, FACS (FIG. 3)
Procedure: Effects of compound derivatives at various concentrations on mouse Th17 polarization. Percentage of DMSO treated IL-17a producing cells was set at 100. Naive mouse CD4 T cells (CD25^−, CD62L^+, and CD44^int-high) were sorted and cultured with CD3/CD28 stimulatory antibodies in the presence of TGFβ (0.1 ng/ml) and IL6 (20 ng/ml). Compounds were added on Day 1 and cells were analyzed on Day 4. For intracellular cytokine staining, cells were incubated for 5 h with phorbol ester (50 ng/ml; Sigma), ionomycin (500 ng/ml; Sigma) and GolgiStop (BD). When needed, surfaces were stained by incubation for 15 min on ice with PECy7-conjugated CD4 (BD Biosciences). The Cytofix/Cytoperm buffer set (BD) was used for intracellular staining. Cells were fixed and made permeable for 30 min on ice and were stained for 30 min on ice in permeabilization buffer with Alexa647-conjugated anti-IL17 (eBioscience) and PE-conjugated anti-IFNg (eBioscience). An LSR II (BD Biosciences) and FlowJo software (Tree Star) were used for flow cytometry. RORg IC50 value acquired from the S2 cell reporter assay is listed for comparison.
(§1) Naive CD4 T cells (CD25^−, CD62L^+, and CD44^int-high) were sorted and cultured with CD3/CD28 stimulatory antibodies in the presence of TGFβ (0.1 ng/ml) and IL6 (20 ng/ml). Compounds were added on Day 1 and cells were analyzed on Day 4. For intracellular cytokine staining, cells were incubated for 5 h with phorbol ester (50 ng/ml; Sigma), ionomycin (500 ng/ml; Sigma) and GolgiStop (BD). When needed, surfaces were stained by incubation for 15 min on ice with PECy7-conjugated CD4 (BD Biosciences). The Cytofix/Cytoperm buffer set (BD) or FoxP3 staining kit (eBioscience) were used for intracellular staining. Cells were fixed and made permeable for 30 min on ice and were stained for 30 min on ice in permeabilization buffer with Alexa647-conjugated anti-IL17 (eBioscience), PE-conjugated anti-IFNg (eBioscience), and/or PE-conjugated anti-FoxP3 (eBioscience). An LSR II (BD Biosciences) and FlowJo software (Tree Star) were used for flow cytometry.

RORγt = RORγt (Mus musculus, UniProt P51450, T352K); experiment: RORγt S2 cell Gal4-luciferase reporter assay; conditions: for Emax: read-out: Efficacy (%)
Excerpt: Methods: The Drosophila S2 cell line was originally purchased from Invitrogen and was maintained in Schneider's medium supplemented with 10% heat-inactivated bovine fetal calf serum and antibiotics (Invitrogen). […] The resulting chimeric gene was subcloned into the copper inducible pMT/V5-His A vector (available from Invitrogen).
In order to generate stable cell lines, cells were co-transfected with pMT-G4DBD-RORγt, pMT-G4DBD-RORα, pMT-G4DBD-DHR3, or pMT-G4DBDVP16 and pHygro plasmids (Invitrogen) and screened for resistant colonies in the presence of hygromycin (0.3 mg/mL).
Methods: 600 G4DBD-RORγ/γt-luc reporter (#25) or G4DBD-VP16-luc reporter cells were distributed into each well of 1,536-well white bottom plates in 4 μl S2 cell culture volume containing hygromicin (300 μg/ml) and puromycin (2 μg/ml). […] After one-hour incubation, 1 μl of culture medium solution containing copper sulfate (to final 0.7 mM) and 10 μM RORγ/γt antagonists were added to each well. After 20-hour incubation at ambient temperature, 1.5 μl firefly luciferase detection mix was added and the luciferase activities were measured in 10 min. ViewLux luminometers were used for measuring luciferase signal.
Since their cognate DNA binding sites were not well characterized, the DNA binding domains (DBD) of RORγ/γt, RORα (mouse homolog for POPγ), and DHR3 (Drosophila orthologue for ROR family proteins) were replaced with the heterologous yeast GAL4 DBD. The transcriptionally active domain of general transcriptional activator VP16 was also fused with GAL4 DBD. The GAL4 fusion constructs were placed under the control of a copper inducible promoter, and stable S2 cell lines with genomic integration of these four reporter constructs were generated. The copper inducible promoter ensures tight regulation of GAL4-fusion protein expression and it allows small molecules to get into the cells prior to protein induction, thus increasing their effects on GAL4 reporters. The stable reporter cell lines also encode the firefly luciferase reporter, whose expression is regulated by five copies of the GAL4 binding site enhancer (UAS), along with the pol III-driven Renilla luciferase reporter.
A cell-based reporter assay was used to detect RORγt-mediated activity. This assay, called RORγt□ employed Drosophila Schneider cells that were stably transfected with two vectors: a gene expressing a fusion of the Gal4 DNA binding domain and RORγt transactivation domain under the control of the metallothionine promoter and a Photinus luciferase reporter regulated by the Gal4 binding site enhancer, UAS. […] Cells (600/well) were dispensed into white solid 1536-well plates (Greiner) using a solenoid-based dispenser. Following transfer of 23 nL compound or DMSO vehicle by a pin tool, the plates were incubated 1 hr at ambient temperature, and 1 uL/well copper sulfate (700 uM final concentration) was added. The plates were centrifuged 15 s at 1000 RPM and incubated 20 hr at ambient temperature. After addition of 1.5 uL Photinus luciferase detection reagent, the plates were incubated 10 min at ambient temperature and then read by a ViewLux (Perkin Elmer) to detect luminescence. […] Efficacy is expressed as % of the maximal response of control inhibitor (Digoxin), set at 100%.

[1] = system: human Th17 cell differentiation; experiment: Human Th17 cell differentiation of naive cord blood T cells; format: cell-based; conditions: IL2, IL23, IL1β, TGFβ, six days (FIG. 6B)
Procedure: Flow cytometry of IL-17a and IFN-γ production by cord blood naive CD4^+T cells (CD45RO^−CD45RA^+CD3^+CD4^+CD25^−HLA-DR^−)transduced with RORαd-IRES-GFP or RORγt-IRES-GFP on day 1 and analyzed on day 6. GFP expressing cells were gated for analysis. […] Flow cytometry of IL-17a and IFN-γ production by human naive cord blood T cells (CD45RO^−D45RA^+CD3^+CD4^+CD25^−HLA-DR^−), which were cultured for six days in presence of IL2, IL23 and IL1β, and with various concentrations of TGFβ (ng/ml). DMSO or N2 was added 16 hours after the cytokine addition.
The results depict flow cytometry of IL-17a and IFN-γ production by cord blood naive CD4^+ T cells (CD45RO^−CD45RA^+CD3^+CD4^+CD25^−HLA-DR^−)transduced with human RORαd-IRES-GFP or human RORγt-IRES-GFP on day 1 and analyzed on day 6. GFP expressing cells were gated for analysis. […] The results depict flow cytometry of IL-17a and IFN-γ production by human naive cord blood T cells (CD45RO^−D45RA^+CD3^+CD4^+CD25^−HLA-DR^−), which were cultured for six days in the presence of IL2, IL23 and ILβ, and with various concentrations of TGFβ (ng/mL). […] IL-17a-APC (eBio64CAP17 eBioscience) and IFN-γ-PECy7 (45.B3 eBioscience) were used for analysis.

[2] = system: Human memory (CD45RO+CD45RA−CD3+CD4+CCR6+CD161+) cells; experiment: Human memory Th17 cell maintenance (IL-17a / IFN-γ staining); format: cell-based; conditions: 3 uM, 6 days
Excerpt: Intracellular staining for IFN-γ or IL-17a in memory CD4^+T cells from multiple donors, assessed on day 6. Each symbol (n=11 or 9, respectively) indicates a separate donor.

Th1 differentiation = experiment: Mouse Th1 differentiation counter-screen (IFNγ production); format: cell-based; conditions: 20 μM, naive CD4 T cells, IL12 and IL2 (FIG. 4)
Procedure: as §1
For Th1 differentiation, IL12 (10 ng/ml) and IL2 (10 U) was added to naive CD4 T cell cultures instead of TGFβ and IL6.

[3] = molecular target: T1, recombinant human RORγ LBD (Homo sapiens, UniProt P51449); experiment: In vitro competition assay, fluorescence polarization with labeled 25-hydroxycholesterol; format: binding; conditions: various concentrations
T1 construct: recombinant human RORγ LBD was loaded with fluorescently-labeled 25-hydroxycholesterol
T1 sequence (P51449 269-508 limits assumed): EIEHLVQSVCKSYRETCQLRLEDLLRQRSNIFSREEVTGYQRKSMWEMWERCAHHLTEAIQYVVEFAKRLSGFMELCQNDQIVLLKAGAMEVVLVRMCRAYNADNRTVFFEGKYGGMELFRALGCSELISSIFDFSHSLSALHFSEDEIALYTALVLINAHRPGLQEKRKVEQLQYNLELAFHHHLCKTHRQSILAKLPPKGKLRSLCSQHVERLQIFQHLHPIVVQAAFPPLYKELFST
Excerpt: The presence of increasing concentrations of NCGC00166547 was correlated with displacement of the fluorescently-labeled 25-hydroxycholesterol from the LBD.

[4] = IC50(μM), Drosophila S2 cells, Gal4-RORγt luciferase reporter, 20 hr
[5] = S2 cell RORg IC50 μM, S2 cell reporter assay, listed for comparison

Chain of RORγt (P51450 with tags, fused parts or gaps T352K): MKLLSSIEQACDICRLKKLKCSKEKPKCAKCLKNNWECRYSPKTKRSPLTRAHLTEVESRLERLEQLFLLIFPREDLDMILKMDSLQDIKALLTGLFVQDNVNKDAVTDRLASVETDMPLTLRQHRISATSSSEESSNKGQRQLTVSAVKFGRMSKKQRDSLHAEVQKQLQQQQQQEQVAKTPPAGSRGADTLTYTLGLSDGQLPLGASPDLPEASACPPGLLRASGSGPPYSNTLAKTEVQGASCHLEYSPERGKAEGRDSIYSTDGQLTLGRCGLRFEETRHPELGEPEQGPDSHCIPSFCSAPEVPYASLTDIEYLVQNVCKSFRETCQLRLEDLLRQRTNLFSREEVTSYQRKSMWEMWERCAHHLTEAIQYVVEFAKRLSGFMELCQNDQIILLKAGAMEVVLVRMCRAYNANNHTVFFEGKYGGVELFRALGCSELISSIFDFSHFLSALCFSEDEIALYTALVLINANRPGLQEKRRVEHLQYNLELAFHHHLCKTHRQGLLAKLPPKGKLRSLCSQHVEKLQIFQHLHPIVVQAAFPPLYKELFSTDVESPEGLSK

| SMILES | IC50 (mouse Th17 polarization) | IC50 (RORγt; [4]) | IC50 (RORγt; [5]) | Emax (RORγt) | further results |
| --- | --- | --- | --- | --- | --- |
| COc1ccc(C(CC(=O)N2CCCC(C)C2)c2c(O)cc(OC)cc2OC)c(OC)c1 (stereo not drawn) [Compound 69] | > 20000 nM | 11 to 50 µM | > 20 µM | 45.6% |  |
| COc1cc(O)c(C(CC(=O)N2CC(C)NC(C)C2)c2ccc3c(c2)OCO3)c(OC)c1 (stereo not drawn) [Compound 42] | > 20000 nM | > 50 µM | > 20 µM |  |  |
| COc1cc(O)c(C(CC(=O)N2CC(C)CC(C)C2)c2ccc(C)cc2)c(OC)c1 (stereo not drawn) [Compound 73] | < 1000 nM |  |  |  |  |
| COCOc1cc(OC)cc(OC)c1C(CC(=O)N1CC(C)CC(C)C1)c1ccc2c(c1)OCO2 (stereo not drawn) [Compound 135] | 1000 to 10000 nM | 1 to 10 µM | 1 to 10 µM | 96.5% |  |
| COc1ccc(C(CC(=O)N2CC(C)CC(C)C2)c2c(O)cc(OC)cc2OC)cc1 (stereo not drawn) [Compound 74] | < 1000 nM |  |  |  |  |
| COc1cc(O)c(C(CC(=O)N2CCCC(C(F)(F)F)C2)c2ccc3c(c2)OCO3)c(OC)c1 (stereo not drawn) [Compound 43] | 1000 to 10000 nM |  |  |  |  |
| COc1cccc(O)c1C(CC(=O)N1CCCC(C)C1)c1ccc2c(c1)OCO2 (stereo not drawn) [Compound 121] | > 20000 nM |  |  |  |  |
| COc1cc(O)c(C(CC(=O)N2CC(C)CC(C)C2)c2ccc3c(c2)OCCO3)c(OC)c1 (stereo not drawn) [Compound 76] | < 1000 nM | < 1 µM | 1 to 10 µM | 95.4% |  |
| COc1cc(O)c(C(CC(=O)N2CCCC(C)C2)c2ccccc2)c(OC)c1 (stereo not drawn) [Compound 61] | > 20000 nM | 1 to 10 µM | 1 to 10 µM | 95.4% |  |
| COc1cc(O)c(C(CC(=O)N2CC(C)CC(C)C2)c2ccc3c(c2)OCO3)c(OC)c1 (stereo not drawn) [Compound 22] | < 1000 nM |  |  | 97.7% |  |
| COc1cc(O)c(C(CC(=O)N2CCCC(C)(C)C2)c2ccc3c(c2)OCO3)c(OC)c1 (stereo not drawn) [Compound 8] | 1000 to 10000 nM |  |  |  |  |
| COc1cc(O)c(C(CC(=O)N2CCCC(C)C2)c2ccccc2C)c(OC)c1 (stereo not drawn) [Compound 63] | > 20000 nM | 1 to 10 µM | 1 to 10 µM | 93.5% |  |
| COc1cc(OC)c(C(CC(=O)N2CC(C)CC(C)C2)c2ccc3c(c2)OCO3)c(OC)c1 (stereo not drawn) [Compound 134] | < 1000 nM | 1 to 10 µM | 1 to 10 µM | 96.4% |  |
| COc1cc(O)c(C(CC(=O)N2C[C@H](C)C[C@H](C)C2)c2ccc3c(c2)OCO3)c(OC)c1 (stereo partly drawn) [NCGC00238427] |  |  |  |  | concentration at which human Th17 cell differentiation is inhibited [1]: ≤ 1 µM; IL-17a expression in human memory Th17 cells ([2]; multiple donors, IL-17a+IFN-γ+/−, p=0.02 (FIG. 7)): inhibits human Th17 cell memory cells expression of IL-17a; IL-17a−IFN-γ+ memory CD4+ T cells, with versus without compound ([2]; two-tailed unpaired Student's t test (FIG. 7)): not significant |
| COc1cc(O)c(C(CC(=O)N2CC(C)CC(C)C2)c2ccc(N(C)C)cc2)c(OC)c1 (stereo not drawn) [Compound 72] | < 1000 nM | 1 to 10 µM | 1 to 10 µM | 96.8% |  |
| COc1cc(OC)c(C(CC(=O)N2CC(C)CC(C)C2)c2ccc3c(c2)OCO3)c(OCC#N)c1 (stereo not drawn) [Compound 136] | 1000 to 10000 nM | 1 to 10 µM | 1 to 10 µM | 90% |  |
| COc1cc(O)c(C(CC(=O)N2CCCCC2)c2ccc3c(c2)OCO3)c(OC)c1 (stereo not drawn) [NCGC00166488] |  |  |  |  | mouse Th17 cell differentiation, as measured by IL17a production (mouse Th17 polarization): suppress mouse Th17 cell differentiation |
| COc1cc(O)c([C@@H](CC(=O)N2CC(C)CC(C)C2)c2ccc3c(c2)OCO3)c(OC)c1 (single isomer, unassigned; (-)) [Compound 35] | < 1000 nM |  |  | 91% |  |
| COc1cc(O)c(C(CC(=O)N2CC(C)OC(C)C2)c2ccc3c(c2)OCO3)c(OC)c1 (stereo not drawn) [Compound 41] | < 1000 nM |  |  |  |  |
| COc1cc(OC)c(C(CC(=O)N2CC(C)CC(C)C2)c2ccc3c(c2)OCO3)c(OCC(N)=O)c1 (stereo not drawn) [Compound 137] | > 20000 nM | 11 to 50 µM | 11 to 20 µM | 98.5% |  |
| COc1ccc(C(CC(=O)N2CCCC(C)C2)c2c(O)cc(OC)cc2OC)cc1 (stereo not drawn) [Compound 60] | 1000 to 10000 nM | 1 to 10 µM | 1 to 10 µM | 91.7% |  |
| COc1cc(O)c(C(CC(=O)N2CCCC(C)C2)c2ccc(C)cc2)c(OC)c1 (stereo not drawn) [Compound 57] | 1000 to 10000 nM | 1 to 10 µM | 1 to 10 µM | 97% |  |
| COc1cc(O)c(C(CC(=O)N2CCCC(C)C2)c2ccc3c(c2)OCO3)c(OC)c1 (stereo not drawn) [NCGC00166547] |  |  |  |  | Th1 differentiation, as measured by IFNγ production (Th1 differentiation): does not inhibit Th1 differentiation; mouse Th17 cell differentiation, as measured by IL17a production (mouse Th17 polarization): suppress mouse Th17 cell differentiation; binding to human RORγt (displacement of fluorescently-labeled 25-hydroxycholesterol) [3]: directly bind to human RORγt |
| COc1ccc(C(CC(=O)N2CCCC(C)C2)c2ccc3c(c2)OCO3)c(O)c1 (stereo not drawn) [Compound 115] | > 20000 nM |  |  |  |  |
| CC1CC(C)CN(C(=O)CC(c2ccc3c(c2)OCO3)c2c(O)ccc3ccccc23)C1 (stereo not drawn) [Compound 138] | 1000 to 10000 nM |  |  |  |  |
| COc1cc(O)c(C(CC(=O)N2CC(C)CC(C)C2)c2ccc(O)cc2)c(OC)c1 (stereo not drawn) [Compound 75] | < 1000 nM | 1 to 10 µM | 1 to 10 µM | 93.8% |  |
| COc1cc(O)c(C(CC(=O)N2CCC(C)CC2)c2ccc3c(c2)OCO3)c(OC)c1 (stereo not drawn) [Compound 1] | > 20000 nM |  |  |  |  |
| COc1cc(OC)c(C(CC(=O)N2CCCC(C)C2)c2ccc3c(c2)OCO3)c(OC)c1 (stereo not drawn) [Compound 120, 3-(Benzo[d][1,3]dioxol-5-yl)-1-(3-methylpiperidin-1-yl)-3-(2,4,6-trimethoxyphenyl)propan-1-one] | 1000 to 10000 nM |  |  |  |  |
